From patent US20020168396A1 (priority 2001, published 2002)
“And” between values parts separate entries of the source, which are not always exact repeats. Identical values can stand only once. Like-named read-outs stand apart in the source and are kept apart here.

How the values were obtained:
[1] = topical vasodilators used to overcome vasospasm; cited from earlier work
[2] = tested on: internal mammary artery (IMA); assay type: cell-based; parameters: Diameter of the conduit, 0 hrs. / Diameter of the conduit, 2 hrs. / Diameter of the conduit, 12 hrs. / Diameter of the conduit, 24 hrs. / Diameter of the conduit, 48 hrs. / Diameter of the conduit, 72 hrs.: unit not given here
saphenous vein = assay type: cell-based; parameters: Diameter of the conduit, 0 hrs. / Diameter of the conduit, 2 hrs. / Diameter of the conduit, 12 hrs. / Diameter of the conduit, 24 hrs. / Diameter of the conduit, 48 hrs. / Diameter of the conduit, 72 hrs.: unit not given here
radial artery = assay type: cell-based; parameters: Diameter of the conduit, 0 hrs. / Diameter of the conduit, 2 hrs. / Diameter of the conduit, 12 hrs. / Diameter of the conduit, 24 hrs. / Diameter of the conduit, 72 hrs.: unit not given here
[3] = IMA, NTG 0.5 micromol/L, verapamil 100 nanomol/L
[4] = Vein, NTG 0.5 micromol/L, verapamil 100 nanomol/L
[5] = Radial, NTG 0.5 micromol/L, verapamil 100 nanomol/L

COc1ccc(Cc2nccc3cc(OC)c(OC)cc23)cc1OC [papaverine]
increase in free flow [1]: 70%

O=[N+]([O-])OCC(CO[N+](=O)[O-])O[N+](=O)[O-] [NTG, nitroglycerine]
Aug % (maximum increase in diameter at a given time point compared to baseline) [2]: 73% and 50% and 47% | Diameter of the conduit, 0 hrs. [2]: 1.5 and 2.2 and 2.3 | Diameter of the conduit, 2 hrs. [2]: 2.1 and 2.4 and 2.7 | Diameter of the conduit, 12 hrs. [2]: 2.3 and 2.5 and 2.8 | Diameter of the conduit, 24 hrs. [2]: 2.3 and 2.6 | Diameter of the conduit, 48 hrs. [2]: 2.4 and 2.8 and 2.9 | Diameter of the conduit, 72 hrs. [2]: 2.9 and 3.1 and 3.4 | Aug % (maximum increase in diameter at a given time point compared to baseline) (saphenous vein): 66% and 67% and 51% | Diameter of the conduit, 0 hrs. (saphenous vein): 2.4 and 3.7 and 2.7 | Diameter of the conduit, 2 hrs. (saphenous vein): 4.0 and 6.2 | Diameter of the conduit, 12 hrs. (saphenous vein): 3.8 and 6.0 and 4.1 | Diameter of the conduit, 24 hrs. (saphenous vein): 4.1 and 5.9 and 3.8 | Diameter of the conduit, 48 hrs. (saphenous vein): 3.7 and 6.1 and 3.9 | Diameter of the conduit, 72 hrs. (saphenous vein): 3.7 and 6.2 | Aug % (maximum increase in diameter at a given time point compared to baseline) (radial artery): 52% and 44% and 42% | Diameter of the conduit, 0 hrs. (radial artery): 2.5 and 2.3 and 2.6 | Diameter of the conduit, 2 hrs. (radial artery): 2.9 and 3.0 and 3.3 | Diameter of the conduit, 12 hrs. (radial artery): 3.6 and 3.0 and 3.5 | Diameter of the conduit, 24 hrs. (radial artery): 3.8 and 2.9 and 3.7 | Diameter of the conduit, 48 hrs. (radial artery): 3.7 | Diameter of the conduit, 72 hrs. (radial artery): 3.8 and 3.3 and 3.7

COc1ccc(CCN(C)CCCC(C#N)(c2ccc(OC)c(OC)c2)C(C)C)cc1OC (stereo not shown) [verapamil]
Diameter of the conduit, 2 hrs. [2, 3]: 2.4 and 2.1 and 2.7 | Diameter of the conduit, 12 hrs. [2, 3]: 2.6 and 2.4 and 2.8 | Diameter of the conduit, 24 hrs. [2, 3]: 2.5 and 2.3 and 2.9 | Diameter of the conduit, 48 hrs. [2, 3]: 3.0 and 2.5 | Diameter of the conduit, 72 hrs. [2, 3]: 2.9 and 2.7 and 3.1 | Aug % (maximum increase in diameter at a given time point compared to baseline) [2, 3]: 61% and 59% and 64% | Diameter of the conduit, 0 hrs. ([2]; IMA, baseline 0 hrs, Kreb's solution 37° C., NTG 0.5 micromol/L, verapamil 100 nanomol/L): 1.8 and 1.7 and 1.9 | Diameter of the conduit, 2 hrs. (saphenous vein; [4]): 5.1 and 5.2 and 5.5 | Diameter of the conduit, 12 hrs. (saphenous vein; [4]): 4.8 and 5.7 and 5.3 | Diameter of the conduit, 24 hrs. (saphenous vein; [4]): 5.0 and 5.8 and 5.2 | Diameter of the conduit, 48 hrs. (saphenous vein; [4]): 4.7 and 5.7 and 5.5 | Diameter of the conduit, 72 hrs. (saphenous vein; [4]): 4.8 and 5.8 and 5.4 | Aug % (maximum increase in diameter at a given time point compared to baseline) (saphenous vein; [4]): 70% and 65% and 66% | Diameter of the conduit, 0 hrs. (saphenous vein; Vein, baseline 0 hrs, Kreb's solution 37° C., NTG 0.5 micromol/L, verapamil 100 nanomol/L): 3.0 and 3.5 and 3.3 | Diameter of the conduit, 2 hrs. (radial artery; [5]): 3.5 and 3.9 and 4.1 | Diameter of the conduit, 12 hrs. (radial artery; [5]): 3.5 and 3.9 | Diameter of the conduit, 24 hrs. (radial artery; [5]): 3.8 | Diameter of the conduit, 48 hrs. (radial artery; [5]): 3.6 and 3.8 | Diameter of the conduit, 72 hrs. (radial artery; [5]): 3.6 and 3.9 | Aug % (maximum increase in diameter at a given time point compared to baseline) (radial artery; [5]): 57% and 62% and 52% | Diameter of the conduit, 0 hrs. (radial artery; Radial, baseline 0 hrs, Kreb's solution 37° C., NTG 0.5 micromol/L, verapamil 100 nanomol/L): 2.3 and 2.4 and 2.7
